{"source": "patent US9504858B2", "about": "(Colgate-Palmolive Company, priority 2012, dated 2016)", "key": {"[1]": {"assay": "Hydrolysis reaction: pH and turbidity of diluted ZLC solutions before and after aging", "format": "physicochemical", "conditions": "for pH after aging / turbidity after aging (NTU): 37° C. oven over 5 hours", "description": "A 185 mg/ml ZLC solution is prepared and diluted several-fold and aged in a 37° C. oven over 5 hours for turbidity studies. […] Turbidity of the solutions is measured using a nephelometer, results being given in nephelometric turbidity units (NTU)."}, "[2]": {"target": "Bovine Serum Albumin (BSA) (Bos taurus, UniProt P02769)", "sequence (P02769 25-607)": "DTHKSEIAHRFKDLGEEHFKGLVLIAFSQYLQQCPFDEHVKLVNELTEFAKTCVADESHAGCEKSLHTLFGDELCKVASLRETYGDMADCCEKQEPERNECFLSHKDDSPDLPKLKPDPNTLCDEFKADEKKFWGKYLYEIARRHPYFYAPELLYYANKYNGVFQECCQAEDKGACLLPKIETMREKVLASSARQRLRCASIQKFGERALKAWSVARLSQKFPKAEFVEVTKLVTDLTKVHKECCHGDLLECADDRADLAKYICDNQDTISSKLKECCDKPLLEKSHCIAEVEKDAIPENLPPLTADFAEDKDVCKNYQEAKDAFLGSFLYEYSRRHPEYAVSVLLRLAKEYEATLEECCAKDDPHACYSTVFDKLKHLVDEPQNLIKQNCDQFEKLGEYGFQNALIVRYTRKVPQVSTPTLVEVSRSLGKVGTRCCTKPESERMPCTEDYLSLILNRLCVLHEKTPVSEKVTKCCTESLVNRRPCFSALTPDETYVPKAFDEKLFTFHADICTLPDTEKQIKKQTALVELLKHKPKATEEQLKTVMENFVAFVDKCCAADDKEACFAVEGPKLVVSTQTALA", "assay": "Flocculation of ZLC in the presence of protein (BSA)", "format": "physicochemical", "conditions": "ZLC 15 mg/ml, 5 hours, 37° C.", "description": "Turbidity and pH of solutions are measured 5 hours after the mixtures were placed in a 37° C. oven, and the results are shown in Table 3: […]"}, "bacterial culture": {"system": "bacterial culture", "assay": "Zone of inhibition test", "format": "cell-based", "conditions": "20 μl on filter paper discs, TSA plates, 20 hours at 37° C.", "description": "A zone of inhibition test is conducted on several materials: zinc oxide, lysine hydrochloride, and ZLC. The method involves making a lawn of freshly prepared bacterial culture on TSA (trypticase soy agar) plates. Sterile filter paper discs are seeded with 20 μl of test sample (supernatant or mixture). Sample-coated filter paper discs are air dried and applied onto the bacterial lawn on TSA plates. Plates are incubated for 20 hours at 37° C."}, "[3]": {"conditions": "sample 3: 1% BSA, pH adjusted to 5.13"}}}
{"substance": "[Zn(C6H14N2O2)2Cl]^+Cl^− [ZLC]", "values": [{"measurement": "initial pH", "setting": "[1]; 5.78 mg/ml", "value": 8.0}, {"measurement": "initial turbidity (NTU)", "setting": "[1]; 5.78 mg/ml", "value": 40.1, "unit": "NTU"}, {"measurement": "pH after aging", "setting": "[1]; 5.78 mg/ml", "value": 8.0}, {"measurement": "turbidity after aging (NTU)", "setting": "[1]; 5.78 mg/ml", "value": ">1000", "unit": "NTU"}, {"measurement": "initial pH", "setting": "[1]; 11.56 mg/ml", "value": 7.8}, {"measurement": "initial turbidity (NTU)", "setting": "[1]; 11.56 mg/ml", "value": 14.8, "unit": "NTU"}, {"measurement": "pH after aging", "setting": "[1]; 11.56 mg/ml", "value": 7.8}, {"measurement": "turbidity after aging (NTU)", "setting": "[1]; 11.56 mg/ml", "value": ">1000", "unit": "NTU"}, {"measurement": "initial pH", "setting": "[1]; 23.125 mg/ml", "value": 7.7}, {"measurement": "initial turbidity (NTU)", "setting": "[1]; 23.125 mg/ml", "value": 0.70, "unit": "NTU"}, {"measurement": "pH after aging", "setting": "[1]; 23.125 mg/ml", "value": 7.7}, {"measurement": "turbidity after aging (NTU)", "setting": "[1]; 23.125 mg/ml", "value": 247.4, "unit": "NTU"}, {"measurement": "initial pH", "setting": "[1]; 46.25 mg/ml", "value": 7.4}, {"measurement": "initial turbidity (NTU)", "setting": "[1]; 46.25 mg/ml", "value": 1.48, "unit": "NTU"}, {"measurement": "pH after aging", "setting": "[1]; 46.25 mg/ml", "value": 7.4}, {"measurement": "turbidity after aging (NTU)", "setting": "[1]; 46.25 mg/ml", "value": 2.81, "unit": "NTU"}, {"measurement": "initial pH", "setting": "[1]; 92.5 mg/ml", "value": 7.0}, {"measurement": "initial turbidity (NTU)", "setting": "[1]; 92.5 mg/ml", "value": 2.78, "unit": "NTU"}, {"measurement": "pH after aging", "setting": "[1]; 92.5 mg/ml", "value": 7.0}, {"measurement": "turbidity after aging (NTU)", "setting": "[1]; 92.5 mg/ml", "value": 2.60, "unit": "NTU"}, {"measurement": "initial pH", "setting": "[1]; 185 mg/ml", "value": 6.8}, {"measurement": "initial turbidity (NTU)", "setting": "[1]; 185 mg/ml", "value": 4.75, "unit": "NTU"}, {"measurement": "pH after aging", "setting": "[1]; 185 mg/ml", "value": 6.8}, {"measurement": "turbidity after aging (NTU)", "setting": "[1]; 185 mg/ml", "value": 4.08, "unit": "NTU"}, {"measurement": "behaviour of the complex upon dilution", "setting": "[1]; 8×, 16× and 32× diluted solutions, precipitates identified by PXRD", "value": "disassociates upon dilution, with consequent precipitation of zinc oxide"}, {"measurement": "Turbidity(NTU)", "setting": "[2]; sample 1: DI water, 0% BSA", "value": 357, "unit": "NTU"}, {"measurement": "pH", "setting": "[2]; sample 1: DI water, 0% BSA", "value": 7.98}, {"measurement": "Turbidity(NTU)", "setting": "[2]; sample 2: 1% BSA, pH 7.17", "value": ">1000", "unit": "NTU"}, {"measurement": "pH", "setting": "[2]; sample 2: 1% BSA, pH 7.17", "value": 8.16}, {"measurement": "Turbidity(NTU)", "setting": "[2]; [3]", "value": ">1000", "unit": "NTU"}, {"measurement": "pH", "setting": "[2]; [3]", "value": 7.97}, {"measurement": "antibacterial activity (zone of inhibition)", "setting": "bacterial culture", "value": "better antibacterial activity than zinc oxide alone or lysine hydrochloride alone"}]}
